Experimental data: PubChem BioAssay AID330 (DTP/NCI, 2004)
Where “and” joins values, the source holds several entries; their conditions need not be identical. Identical values can stand only once. Inconclusive results and toxic doses are left out. Rule for the calls: active = survival T/C of 150% or more; inactive = T/C below 125% in these data.

Test system: P388 leukemia ip, CD2F1 mice, survival T/C
Assay: NCI In Vivo Anticancer Drug Screen. Data for tumor model P388 Leukemia (intraperitoneal) in CD2F1 (CDF1) mice
Details: endpoint: median survival time, higher = longer survival
Method in brief: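 Mice carrying the transplanted tumor received test compound or vehicle. Survival was recorded in each group, and the value is the treated-group measurement divided by that of the vehicle-treated control group.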

[1] = dose: 100.0 mg/kg/injection, schedule: Q01DX005 (ip), vehicle: saline with Tween-80
[2] = dose: 100.0 mg/kg/injection, schedule: Q01DX001 (ip), vehicle: saline
[3] = dose: 200.0 mg/kg/injection, schedule: Q01DX001 (ip), vehicle: saline
[4] = dose: 400.0 mg/kg/injection, schedule: Q01DX001 (ip), vehicle: saline
[5] = dose: 25.0 mg/kg/injection, schedule: Q01DX009 (ip), vehicle: Klucel (hydroxypropylcellulose) (HPC)
[6] = dose: 50.0 mg/kg/injection, schedule: Q01DX009 (ip), vehicle: Klucel (hydroxypropylcellulose) (HPC)
[7] = dose: 100.0 mg/kg/injection, schedule: Q01DX009 (ip), vehicle: Klucel (hydroxypropylcellulose) (HPC)
[8] = dose: 50.0 mg/kg/injection, schedule: Q01DX009 (ip), vehicle: saline
[9] = dose: 100.0 mg/kg/injection, schedule: Q01DX009 (ip), vehicle: saline
[10] = dose: 12.5 mg/kg/injection, schedule: Q01DX009 (ip), vehicle: saline
[11] = dose: 25.0 mg/kg/injection, schedule: Q01DX009 (ip), vehicle: saline
[12] = dose: 50.0 mg/kg/injection, schedule: Q01DX005 (ip), vehicle: Klucel (hydroxypropylcellulose) (HPC)
[13] = dose: 100.0 mg/kg/injection, schedule: Q01DX005 (ip), vehicle: Klucel (hydroxypropylcellulose) (HPC)
[14] = dose: 200.0 mg/kg/injection, schedule: Q01DX005 (ip), vehicle: Klucel (hydroxypropylcellulose) (HPC)
[15] = dose: 50.0 mg/kg/injection, schedule: Q04DX002 (ip), vehicle: saline
[16] = dose: 100.0 mg/kg/injection, schedule: Q04DX002 (ip), vehicle: saline
[17] = dose: 200.0 mg/kg/injection, schedule: Q04DX002 (ip), vehicle: saline
[18] = dose: 6.25 mg/kg/injection, schedule: Q01DX009 (ip), vehicle: saline

Measured: T/C

N#C/C(=C1/OC(=N)C(c2ccccc2Cl)C1=O)c1ccccc1Cl (stereo not drawn)
inactive: dose: 50.0 mg/kg/injection, schedule: Q01DX005 (ip), vehicle: saline with Tween-80 103 % of control | [1] 107 % of control | dose: 200.0 mg/kg/injection, schedule: Q01DX005 (ip), vehicle: saline with Tween-80 103 % of control

N#CC(N)(C#N)C(N)=O
inactive: [2] 101 % of control | [3] 101 % of control | [4] 103 % of control

C=C1C(=O)OC2/C=C(\C)CC/C=C(\C)C(OC(=O)C3(C)OC3C)C(O)C12 (stereo not drawn)
inactive: dose: 12.5 mg/kg/injection, schedule: Q01DX009 (ip), vehicle: Klucel (hydroxypropylcellulose) (HPC) 96 % of control | [5] 100 % of control | [6] 115 % of control | [7] 103 % of control

[N-]=[N+]=[N-]
inactive: dose: 3.0 mg/kg/injection, schedule: Q01DX009 (ip), vehicle: saline with Tween-80 100 % of control | dose: 6.0 mg/kg/injection, schedule: Q01DX009 (ip), vehicle: saline with Tween-80 105 % of control

CCCn1cc2c3c(cccc31)C1C=C(C)CN(C)C1C2 (stereo not drawn)
inactive: dose: 6.25 mg/kg/injection, schedule: Q01DX005 (ip), vehicle: saline with Tween-80 100 % of control and 107 % of control | dose: 12.5 mg/kg/injection, schedule: Q01DX005 (ip), vehicle: saline with Tween-80 99 % of control and 100 % of control and 116 % of control | dose: 25.0 mg/kg/injection, schedule: Q01DX005 (ip), vehicle: saline with Tween-80 98 % of control and 105 % of control and 108 % of control | [1] 117 % of control

CCCCCCCC/C=C\CCCCCCCCN1CCOCC1
inactive: [8] 97 % of control | [9] 106 % of control

N#Cc1sc(=S)n(-c2ccccc2)c1N
inactive: [10] 98 % of control | [11] 107 % of control | [8] 103 % of control and 104 % of control

O=c1[nH]c(=O)c2nc3cc(Cl)ccc3nc2[nH]1
inactive: [12] 116 % of control | [13] 104 % of control | [14] 99 % of control

CC(=O)NC1=C(O)C2C(c3ccc(C)cc3)C(C#N)C(=O)N2C1=O (stereo not drawn)
inactive: [2] 105 % of control | [3] 97 % of control | [4] 99 % of control

CC(=O)Nc1ccc(S(=O)(=O)Nc2ccc3oc(=O)[nH]c3c2)cc1
inactive: dose: 100.0 mg/kg/injection, schedule: Q01DX001 (ip), vehicle: Klucel (hydroxypropylcellulose) (HPC) 98 % of control | dose: 200.0 mg/kg/injection, schedule: Q01DX001 (ip), vehicle: Klucel (hydroxypropylcellulose) (HPC) 93 % of control | dose: 400.0 mg/kg/injection, schedule: Q01DX001 (ip), vehicle: Klucel (hydroxypropylcellulose) (HPC) 92 % of control

CC(N)C12CC3CC(CC(C3)C1)C2 (stereo not drawn)
inactive: dose: 25.0 mg/kg/injection, schedule: Q04DX002 (ip), vehicle: saline 108 % of control | [15] 100 % of control | [16] 100 % of control | dose: 100.0 mg/kg/injection, schedule: Q04DX002 (ip), vehicle: suspension in saline 101 % of control

CC(C)C1=CC23CCC4C(C)(C(=O)O)CCCC4(C)C2CC1C1C(=O)N(CCCN(C)C)C(=O)C13 (stereo not drawn)
inactive: dose: 60.0 mg/kg/injection, schedule: Q01DX005 (ip), vehicle: saline with Tween-80 104 % of control | dose: 120.0 mg/kg/injection, schedule: Q01DX005 (ip), vehicle: saline with Tween-80 99 % of control

O=[N+]([O-])/C=C/c1ccccc1Cl
inactive: dose: 10.0 mg/kg/injection, schedule: Q01DX009 (ip), vehicle: other 115 % of control | dose: 30.0 mg/kg/injection, schedule: Q04DX003 (ip), vehicle: other 118 % of control

CCCCCCCCCCCCCCCCCCOC(=O)Cc1ccc(N(CCCl)CCCl)cc1
active: dose: 45.0 mg/kg/injection, schedule: Q01DX009 (ip), vehicle: saline with Tween-80 168 % of control | dose: 90.0 mg/kg/injection, schedule: Q01DX009 (ip), vehicle: saline with Tween-80 163 % of control | dose: 180.0 mg/kg/injection, schedule: Q01DX009 (ip), vehicle: saline with Tween-80 150 % of control

CCn1c(O)c(N=NC(=S)c2ccc3ccccc3n2)c2ccccc21
inactive: [8] 104 % of control | [9] 96 % of control | dose: 200.0 mg/kg/injection, schedule: Q01DX009 (ip), vehicle: saline 86 % of control

O=C1OCCC1(S)C(O)c1ccccc1 (stereo not drawn)
inactive: dose: 21.25 mg/kg/injection, schedule: Q01DX005 (ip), vehicle: acetone 103 % of control | dose: 42.5 mg/kg/injection, schedule: Q01DX005 (ip), vehicle: acetone 100 % of control | dose: 85.0 mg/kg/injection, schedule: Q01DX005 (ip), vehicle: acetone 103 % of control

CCCCCCCCCCCCN(O)C(=O)c1ccccc1
inactive: [6] 99 % of control and 115 % of control | [7] 104 % of control | dose: 200.0 mg/kg/injection, schedule: Q01DX009 (ip), vehicle: Klucel (hydroxypropylcellulose) (HPC) 108 % of control and 96 % of control

CCN(CC)S(=O)(=O)C(=[N+]=[N-])P(=O)(OC)OC
inactive: [16] 100 % of control | [17] 112 % of control | dose: 400.0 mg/kg/injection, schedule: Q04DX002 (ip), vehicle: saline 100 % of control

C#CC[N+]12CN3CN(CN(C3)C1)C2
inactive: [10] 98 % of control | [11] 99 % of control | [8] 99 % of control | [9] 116 % of control

N#C/C(=N\Nc1ccccc1)C(N)=S
inactive: dose: 12.5 mg/kg/injection, schedule: Q01DX009 (ip), vehicle: other 109 % of control | dose: 25.0 mg/kg/injection, schedule: Q01DX009 (ip), vehicle: other 93 % of control | dose: 50.0 mg/kg/injection, schedule: Q01DX009 (ip), vehicle: other 91 % of control

CS(C)=O.CS(C)=O.[Cl][Rh]([Cl])([Cl])[Cl]
inactive: dose: 12.5 mg/kg/injection, schedule: Q04DX003 (ip), vehicle: saline 100 % of control | dose: 25.0 mg/kg/injection, schedule: Q04DX003 (ip), vehicle: saline 109 % of control | dose: 50.0 mg/kg/injection, schedule: Q04DX003 (ip), vehicle: saline 118 % of control

CC(C)(C)c1cc(C[N+](C)(C)C)c(O)c(C(C)(C)C)c1
inactive: dose: 12.5 mg/kg/injection, schedule: Q01DX005 (ip), vehicle: distilled water + alcohol 95 % of control | dose: 25.0 mg/kg/injection, schedule: Q01DX005 (ip), vehicle: distilled water + alcohol 96 % of control | dose: 50.0 mg/kg/injection, schedule: Q01DX005 (ip), vehicle: distilled water + alcohol 101 % of control and 104 % of control

C1=NCCNc2nc3ccccc3cc2C=NCCNc2nc3ccccc3cc21
inactive: [15] 100 % of control | [16] 99 % of control | [17] 99 % of control

CN(C)C1CS(=O)(=O)OC2=C1CCc1c2ccn1C (stereo not drawn)
inactive: dose: 60.0 mg/kg/injection, schedule: Q01DX005 (ip), vehicle: Klucel (hydroxypropylcellulose) (HPC) 96 % of control | dose: 120.0 mg/kg/injection, schedule: Q01DX005 (ip), vehicle: Klucel (hydroxypropylcellulose) (HPC) 98 % of control | dose: 240.0 mg/kg/injection, schedule: Q01DX005 (ip), vehicle: Klucel (hydroxypropylcellulose) (HPC) 96 % of control

c1ccc(-c2ccccc2C2=NC2)c(C2=NC2)c1
inactive: dose: 25.0 mg/kg/injection, schedule: Q04DX002 (ip), vehicle: saline with Tween-80 99 % of control | dose: 50.0 mg/kg/injection, schedule: Q04DX002 (ip), vehicle: saline with Tween-80 100 % of control | dose: 100.0 mg/kg/injection, schedule: Q04DX002 (ip), vehicle: saline with Tween-80 99 % of control and 94 % of control

CC1=CSC2=NCCCCN12
inactive: [18] 91 % of control | [10] 93 % of control | [11] 92 % of control

Cc1cccc(NC(=O)CS)n1
inactive: [5] 98 % of control | [6] 95 % of control

CC[CH2][Sn]([CH2]CC)([O]C(C)=O)[c]1ccccc1
inactive: dose: 1.56 mg/kg/injection, schedule: Q01DX009 (ip), vehicle: saline 90 % of control | dose: 3.12 mg/kg/injection, schedule: Q01DX009 (ip), vehicle: saline 86 % of control | [18] 87 % of control | [8] 113 % of control

COc1c2c(cc3c1C(C1OC(=O)c4c1c([N+](=O)[O-])c(OC)c(OC)c4[N+](=O)[O-])N(C)CC3)OCO2 (stereo not drawn)
inactive: dose: 25.0 mg/kg/injection, schedule: Q01DX005 (ip), vehicle: Klucel (hydroxypropylcellulose) (HPC) 101 % of control | [12] 92 % of control | [13] 93 % of control | [14] 91 % of control
